SMILES strings stand for the structures.

The subject of one test is ring stage parasites. In words: Parasite growth potency assay, 72 hours, LDH readout. In kind it is cell-based. To be noted: 72 h, parasite growth measured by LDH assay after 72 hours at 37° C.; 0.7% rings, 2% haematocrit; read-out: EC50. A digest of the protocol:
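Parasite growth was quantified by LDH assay after a −80 °C freeze-thaw. Before that, compound was incubated for 72 h at 37 °C under humidified gas with ring-stage cultures adjusted to 0.7% parasitemia and 2% haematocrit in serum- and albumax-supplemented RPMI-Hepes.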
The term EC50 denotes the concentration that produces a half-maximal response. `CCC1(C)CC(=O)N([C@H](CCOC)c2cccc(C(=O)N[C@@H]3c4ccccc4C[C@H]3O)c2)C(=N)N1` (stereo partly drawn) [Example 195A, [4-ethyl-1-[(1R)-1-[3-[[(1R,2R)-2-hydroxyindan-1-yl]carbamoyl]phenyl]-3-methoxy-propyl]-4-methyl-6-oxo-hexahydropyrimidin-2-ylidene]ammonium; 2,2,2-trifluoroacetate]: the EC50 amounted to 3.3 nM.

As to `CCC1(CC)CC(=O)N(C(CCOC)c2ccc(C(F)(F)F)c(C(=O)N[C@@H]3c4ccccc4C[C@@]3(C)O)c2)C(=N)N1` (stereo partly drawn) [Example 241, 5-[1-(4,4-diethyl-2-imino-6-oxo-hexahydropyrimidin-1-yl)-3-methoxy-propyl]-N-[(1R,2R)-2-hydroxy-2-methyl-indan-1-yl]-2-(trifluoromethyl)benzamide], the EC50 was found to be 9.84 nM.

Take `CC(C)[C@]1(C)CC(=O)N([C@H](c2ccccc2)c2cccc(C(=O)N[C@@H]3CCOc4ccccc43)c2)C(=N)N1` [Example 9B, [(4S)-1-[(R)-[3-[[(4R)-chroman-4-yl]carbamoyl]phenyl]-phenyl-methyl]-4-isopropyl-4-methyl-6-oxo-hexahydropyrimidin-2-ylidene]ammonium; 2,2,2-trifluoroacetate]: the concentration giving a half-maximal response (EC50) is 19.2 nM.

Regarding `CCC1(CC)CC(=O)N(C(CCOC)c2ccc(C(F)(F)F)c(C(=O)N[C@@H]3c4ccccc4OC[C@]3(C)O)c2)C(=N)N1` (stereo partly drawn) [Example 245, 5-[1-(4,4-diethyl-2-imino-6-oxo-hexahydropyrimidin-1-yl)-3-methoxy-propyl]-N-[(3R,4R)-3-hydroxy-3-methyl-chroman-4-yl]-2-(trifluoromethyl)benzamide], the concentration for a half-maximal effect (EC50) is 1.6 nM.

For the compound `CCC1(CC)CC(=O)N([C@H](COCCOC)c2cccc(C(=O)N[C@@H]3c4ccccc4C[C@H]3O)c2)C(=N)N1` [Example 140, [4,4-diethyl-1-[(1S)-1-[3-[[(1R,2R)-2-hydroxyindan-1-yl]carbamoyl]phenyl]-2-(2-methoxyethoxy)ethyl]-6-oxo-hexahydropyrimidin-2-ylidene]ammonium; 2,2,2-trifluoroacetate], the EC50 came to 3.2 nM.

As to `CCC1(CC)CC(=O)N([C@H](CCOC)c2cccc(C(=O)N[C@H]3CCOc4ccccc43)c2)C(=N)N1` [Example 56, [1-[1-[3-[[(4S)-chroman-4-yl]carbamoyl]phenyl]-3-methoxy-propyl]-4,4-diethyl-6-oxo-hexahydropyrimidin-2-ylidene]ammonium; 2,2,2-trifluoroacetate], the EC50 is 0.5 nM.

On to `CCC1(CC)CC(=O)N(Cc2cc(C(=O)NC3CC(C)(C)Oc4ccccc43)ccn2)C(=N)N1` (stereo not drawn) [Example 80, [1-[[4-[(2,2-dimethylchroman-4-yl)carbamoyl]pyridin-1-ium-2-yl]methyl]-4,4-diethyl-6-oxo-hexahydropyrimidin-2-ylidene]ammonium; 2,2,2-trifluoroacetate], for which the EC50 came out at 1.7 nM.

Turning to `CCC1(CC)CC(=O)N(Cc2cccc(C(=O)N[C@@H]3c4ccccc4CC3(C)O)c2)C(=N)N1` (stereo in doubt) [Example 121, 3-[(4,4-diethyl-2-imino-6-oxo-hexahydropyrimidin-1-yl)methyl]-N-(2-hydroxy-2-methyl-indan-1-yl)benzamide], the EC50 is 8.6 nM.

Regarding `CCC1(CC)CC(=O)N([C@@H](c2ccc(S(C)(=O)=O)cc2)c2cccc(C(=O)N[C@H]3CC(C)(C)Oc4ccccc43)c2)C(=N)N1` [Example 115B, [1-[[3-[[(4S)-2,2-dimethylchroman-4-yl]carbamoyl]phenyl]-(4-methylsulfonylphenyl)methyl]-4,4-diethyl-6-oxo-hexahydropyrimidin-2-ylidene]ammonium; 2,2,2-trifluoroacetate], the EC50 came out at 4.4 nM.

In the case of `COCC[C@H](c1cc(F)cc(C(=O)N[C@H]2CC(C)(C)Oc3ccccc32)c1)N1C(=N)NC(C)(C)CC1=O` [Example 173, [1-[1-[3-[[(4S)-2,2-dimethylchroman-4-yl]carbamoyl]-5-fluoro-phenyl]-3-methoxy-propyl]-4,4-dimethyl-6-oxo-hexahydropyrimidin-2-ylidene]ammonium; 2,2,2-trifluoroacetate], the EC50 was found to be 1 nM.

Take `CCC1(CC)CC(=O)N([C@H](CCS(C)(=O)=O)c2cccc(C(=O)N[C@H]3CC(C)(C)Oc4ccccc43)c2)C(=N)N1` [Example 156, [1-[1-[3-[[(4S)-2,2-dimethylchroman-4-yl]carbamoyl]phenyl]-3-methylsulfonyl-propyl]-4,4-diethyl-6-oxo-hexahydropyrimidin-2-ylidene]ammonium; 2,2,2-trifluoroacetate]: the EC50 was determined as 5.7 nM.

As to `CCC[C@H](c1cccc(C(=O)N[C@@H]2c3ccccc3C[C@H]2O)c1)N1C(=N)N[C@@](CC2CC2)(c2ccccc2)CC1=O` [Example 65, [(4R)-4-(cyclopropylmethyl)-1-[(1R)-1-[3-[[(1R,2R)-2-hydroxyindan-1-yl]carbamoyl]phenyl]butyl]-6-oxo-4-phenyl-hexahydropyrimidin-2-ylidene]ammonium; 2,2,2-trifluoroacetate], the EC50 came to 43.9 nM.

Consider `CCC1(CC)CC(=O)N([C@H](CCOC)c2cccc(C(=O)N[C@H]3c4cc(F)ccc4OC(C)(C)[C@@H]3O)c2)C(=N)N1` [Example 165A, [4,4-diethyl-1-[(1R)-1-[3-[[(3R,4S)-6-fluoro-3-hydroxy-2,2-dimethyl-chroman-4-yl]carbamoyl]phenyl]-3-methoxy-propyl]-6-oxo-hexahydropyrimidin-2-ylidene]ammonium; 2,2,2-trifluoroacetate], for which the EC50 came to 41.4 nM.

Take `CCC1(CC)CC(=O)N([C@H](CCOC)c2cccc(C(=O)N[C@H]3c4ccccc4C4(CC4)[C@@H]3O)c2)C(=N)N1` [Example 191B, [4,4-diethyl-1-[(1R)-1-[3-[(2′-hydroxyspiro[cyclopropane-1,3′-indane]-1′-yl)carbamoyl]phenyl]-3-methoxy-propyl]-6-oxo-hexahydropyrimidin-2-ylidene]ammonium; 2,2,2-trifluoroacetate]: the EC50 was determined as 90.2 nM.

The test is the same for the next values; noted with them: parasite growth measured by LDH assay after 72 hours at 37° C.; 0.7% rings, 2% haematocrit; read-out: EC50.
In the case of `CCC1(CC)CC(=O)N([C@H](CCS(C)(=O)=O)c2cccc(C(=O)N[C@@H]3c4ccccc4C[C@]3(C)O)c2)C(=N)N1` [Example 154B, 3-[1-(4,4-diethyl-2-imino-6-oxo-hexahydropyrimidin-1-yl)-3-methylsulfonyl-propyl]-N-[(1R,2S)-2-hydroxy-2-methyl-indan-1-yl]benzamide], the half-maximal effective concentration (EC50) amounted to 69 nM.

As for `CCC1(CC)CC(=O)N([C@H](CCOC)c2cccc(C(=O)N[C@@H]3c4ccccc4CC3(O)C(F)(F)F)c2)C(=N)N1` (single isomer, unassigned) [Example 204B], the EC50 stood at 8.5 nM.

As to `COCC[C@H](c1cc(F)cc(C(=O)N[C@@H]2c3ccccc3C[C@@]2(C)O)c1)N1C(=N)NC(C)(C)CC1=O` [Example 175A, 3-fluoro-N-[(1R,2R)-2-hydroxy-2-methyl-indan-1-yl]-5-[1-(2-imino-4,4-dimethyl-6-oxo-hexahydropyrimidin-1-yl)-3-methoxy-propyl]benzamide], the EC50 was determined as 37.1 nM.

On to `CCC[C@H](c1cccc(C(=O)N[C@@H]2c3ccccc3CC2(C)O)c1)N1C(=N)NC(CC)(CC)CC1=O` (stereo partly drawn) [Example 122D, 3-[(1R)-1-(4,4-diethyl-2-imino-6-oxo-hexahydropyrimidin-1-yl)butyl]-N-(2-hydroxy-2-methyl-indan-1-yl)benzamide], for which the EC50 came to 0.6 nM.

Source of the values: patent publication US12629374B2, “Antimalarial agents” (Merck Sharp & Dohme LLC, priority 2020, dated 2026).
